From the NIST ThermoML archive (doi:10.1016/j.jct.2014.07.019)

Assay: xn = mol fraction of the nth substance listed
Details: 100 kPa, Liquid; for speed of sound: Frequency=3 MHz, Sing-around technique in a fixed-path interferometer; for mass density: Vibrating tube method

CCCCOCC(C)O (stereo not given) [1-butoxy-2-propanol] + CC(C)O
Details	mass density, 293.15 K [kg/m3]	mass density, 298.15 K [kg/m3]	mass density, 303.15 K [kg/m3]	mass density, 308.15 K [kg/m3]	mass density, 313.15 K [kg/m3]	speed of sound, 293.15 K [m/s]	speed of sound, 298.15 K [m/s]	speed of sound, 303.15 K [m/s]	speed of sound, 308.15 K [m/s]	speed of sound, 313.15 K [m/s]
x1 = 0.0518	795.249	791.104	787.006	782.711	778.081	1178.7	1159	1141.8	1124.3	1103.5
x1 = 0.1029	803.695	799.527	795.386	791.07	786.435	1188.9	1168.9	1150.7	1133.2	1111.5
x1 = 0.1532	811.327	807.143	802.969	798.631	793.996	1197.5	1178.3	1159.2	1141.6	1121.5
x1 = 0.2019	818.045	813.834	809.64	805.279	800.656	1205.8	1186.1	1166.8	1149.2	1129.9
x1 = 0.2529	824.525	820.286	816.061	811.703	807.104	1213.9	1194.4	1174.2	1156.5	1138.4
x1 = 0.3032	830.352	826.103	821.857	817.482	812.872	1221.8	1201.3	1181	1163.2	1146.6
x1 = 0.4059	840.824	836.541	832.254	827.85	823.26	1234.6	1214	1193.5	1175.7	1159.4
x1 = 0.5048	849.502	845.196	840.881	836.456	831.887	1244.9	1225.3	1204.4	1186.7	1170.3
x1 = 0.604	857.039	852.718	848.373	843.934	839.389	1253.3	1234.6	1214.4	1196.6	1179.7
x1 = 0.7012	863.524	859.19	854.833	850.391	845.859	1261.2	1243	1222.6	1204.8	1187.9
x1 = 0.8028	869.466	865.108	860.733	856.287	851.775	1267.7	1250.2	1230.5	1212.8	1195.7
x1 = 0.8545	872.203	867.842	863.464	859.022	854.514	1270.6	1254.6	1234	1216.2	1199.3
x1 = 0.9056	874.745	870.379	865.982	861.537	857.049	1273.4	1257.5	1237.5	1219.7	1202.1
x1 = 0.954	876.996	872.629	868.284	863.829	859.355	1275.9	1259.8	1240.6	1222.9	1204.7
x1 = 1	879.031	874.632	870.204	865.737	861.241	1279	1260.9	1242.9	1224.9	1207
